Values quoted from earlier work in article PMC4364779, “IMD-4690, a Novel Specific Inhibitor for Plasminogen Activator Inhibitor-1, Reduces Allergic Airway Remodeling in a Mouse Model of Chronic Asthma via Regulating Angiogenesis and Remodeling-Related Mediators” (PLoS ONE, 2015).

System: murine model of chronic asthma
Set-up: method as in PMID 22323366
Details: cited from earlier work

O=C(O)C(=O)c1cn(Cc2ccccc2)c2ccc(-c3ccc(OC(F)(F)F)cc3)cc12 [tiplaxtinin]
Allergic airway inflammation and lung collagen deposition: attenuated
